Here are results for eleven compounds from paper PMC6804229, “Cytotoxic Xanthones from Hypericum stellatum, an Ethnomedicine in Southwest China” (Molecules, 2019).

Where two headings read alike, the source gives them in different places.

The subject of data set [1] is five human liver carcinoma cell lines. In words: cells. Type of data set: cell-based. The protocol:
The incubation continued for another 1–4 h.

The subject of data set [2] is Huh-7. In words: MTS cytotoxicity assay, Huh-7.
Description: (§1) The isolated compounds were tested in vitro for their cytotoxicity to five human liver carcinoma cell lines (SMMC-7721, Huh-7, HepG2, SK-HEP-1, PLC/PRF/5) and the immortalized noncancerous human liver cell (LO2), in a 3-(4,5-dimethylthiazol-2-yl)-5(3-carboxymethoxyphenyl)2-(4-sulfopheny)-2H-tetrazolium (MTS; Promega, Beijing, China) assay [31]. In general, cells in the log phase of their cycle were seeded in 96-well plates (4000–5000 cells/well, NEST Biotechnology, Wuxi, China) in a 100-μL volume. After 12 h of incubation at 37 °C, each test compound was added. The cancer cell lines were exposed to the test compounds at five concentrations (0.064, 0.32, 1.6, 8, and 40 μM) in triplicate with cisplatin (Meilunbio, CAS No. 15663-27-1) and Taxol (Meilunbio, CAS No. 33069-62-4) as the positive control. After incubation for 48 h at 37 °C, 20 μL of MTS solution and 100 μL DMEM were added into the well. The incubation continued for another 1–4 h.
Data set [3] relates to SK-HEP-1. In words: MTS cytotoxicity assay, SK-HEP-1.
Description: as §1
Data set [4] deals with PLC/PRF/5. In words: MTS cytotoxicity assay, PLC/PRF/5. A general note: Formazan colour is commonly taken as a measure of viable cells.
Description: as §1
Data set [5] deals with SMMC-7721. The data set can be described thus: MTS cytotoxicity assay, SMMC-7721.
Description: as §1
In data set [6] the test system is HepG2. The data set can be described thus: MTS cytotoxicity assay, HepG2.
Description: as §1
Data set [7] relates to LO2.
Excerpt: (§2) Considering its purported medicinal value for the treatment of liver disease, we tested the cytotoxic activities of ten xanthones isolated from H. stellatum against five human liver carcinoma cell lines (SMMC-7721, Huh-7, HepG2, SK-HEP-1, PLC/PRF/5), as well as the immortalized non-cancerous human liver cell (LO2) by the MTS method, in vitro, with cisplatin (CAS No. 15663-27-1, Meilunbio, Dalian, China) and Taxol (CAS No. 33069-62-4, Meilunbio, Dalian, China) as positive controls.
as §1
The subject of data set [8] is LO2. In words: cells. As to conditions: Homo sapiens, L02, 48 h, read-out: IC50 ± SD.
Excerpt: as §2, §1
Data set [9] relates to SK-HEP-1.
Description: as §1
The test system of data set [10] is Huh-7.
Description: as §1
Data set [11] has as its system PKC. On the set-up: method as in PMID 26245668. To be noted: synthesized isojacareubin; cited from earlier work.
In data set [12] the test system is PLC/PRF/5.
Description: as §1
Data set [13] concerns SMMC-7721.
Description: as §1
Data set [14] relates to HepG2.
Description: as §1
Where [15] appears, read: range over five human liver carcinoma cell lines, read-out: IC50 value range.
The mark [16] stands for this setting: read-out: IC50 ± SD, Huh-7, MTS, 48 h, mean of three independent experiments.
Where [17] appears, read: read-out: IC50 ± SD, SK-HEP-1, MTS, 48 h, mean of three independent experiments.
The mark [18] stands for this setting: read-out: IC50 ± SD, PLC/PRF/5, MTS, 48 h, mean of three independent experiments.
The mark [19] stands for this setting: read-out: IC50 ± SD, SMMC-7721, MTS, 48 h, mean of three independent experiments.
The mark [20] stands for this setting: read-out: IC50 ± SD, HepG2, MTS, 48 h, mean of three independent experiments.
Setting [21] is: read-out: IC50 ± SD, LO2 human normal liver cell line, MTS, 48 h, mean of three independent experiments.
Where [22] appears, read: Homo sapiens, Huh-7, 48 h, read-out: IC50 ± SD.
[23] abbreviates: Homo sapiens, SK-HEP1, 48 h, read-out: IC50 ± SD.
[24] abbreviates: Homo sapiens, PLC-PRF-5, 48 h, read-out: IC50 ± SD.
Where [25] appears, read: Homo sapiens, SMMC-7721, 48 h, read-out: IC50 ± SD.
Setting [26] is: Homo sapiens, HepG2, 48 h, read-out: IC50 ± SD.
The mark [27] stands for this setting: Homo sapiens, HepG2, read-out: cytotoxic activity (class).
[28] abbreviates: Homo sapiens, SMMC-7721, read-out: cytotoxic activity (class).
[29] abbreviates: Homo sapiens, SK-HEP1, read-out: cytotoxic activity (class).
[30] abbreviates: Homo sapiens, Huh-7, read-out: cytotoxic activity (class).
The mark [31] stands for this setting: Homo sapiens, PLC-PRF-5, read-out: cytotoxic activity (class).

On to `N.N.[Cl][Pt][Cl]` [Cisplatin, cisplatin, reference compound], for which the IC50 was 4.47 to 20.6 µM in data set [1] (setting [15]); 16 ± 0.95 µM in data set [2] (setting [16]); 20.6 ± 1.03 µM in [3] (setting [17]); 10.7 ± 0.8 µM in data set [4] (setting [18]); 4.47 ± 0.27 µM in data set [5] (setting [19]); 10.3 ± 0.5 µM in data set [6] (setting [20]). Moreover, in data set [7] (setting [21]), the IC50 came to 13.9 ± 0.87 µM.

Take `COc1cc2oc3ccccc3c(=O)c2cc1O` [Compound 1, 2-hydroxy-3-methoxyxanthone]: the IC50 in data set [2] (setting [22]) is over 40 µM; in data set [3] (setting [23]), over 40 µM; in [4] (setting [24]), over 40 µM; in [5] (setting [25]), over 40 µM; in data set [6] (setting [26]) it was 10.2 ± 0.12 µM; in [6] (setting [27]) it was 10 to 40 µM. Moreover, in data set [8], the IC50 is 14.5 ± 0.95 µM.

On to `O=c1c2c(O)cccc2oc2cc(O)cc(O)c12` [Compound 2, 1,3,8-trihydroxyxanthone], for which the IC50 in data set [2] (setting [22]) is over 40 µM; in [3] (setting [23]) it was over 40 µM; in [4] (setting [24]), over 40 µM; in [5] (setting [25]), 15.2 ± 0.27 µM; in data set [5] (setting [28]), 10 to 40 µM; in [6] (setting [26]), over 40 µM. Moreover, in data set [8], the IC50 was over 40 µM.

Consider `O=c1c2cc(O)c(O)cc2oc2cc(O)cc(O)c12` [Compound 3, 1,3,6,7-tetrahydroxylxanthone], for which the IC50 in data set [2] (setting [22]), in data set [3] (setting [23]), in data set [4] (setting [24]), in data set [5] (setting [25]) and in data set [6] (setting [26]) was over 40 µM in each case.

Consider `O=c1c2cc(O)ccc2oc2cc(O)cc(O)c12` [Compound 4, 1,3,7-trihydroxyxanthone], for which the IC50 was over 40 µM in [2] (setting [22]); over 40 µM in [3] (setting [23]); over 40 µM in data set [4] (setting [24]); over 40 µM in [5] (setting [25]); 22.6 ± 1.43 µM in [6] (setting [26]); 10 to 40 µM in data set [6] (setting [27]). In addition, the IC50 in data set [8] was over 40 µM.

On to `COc1cc(O)cc2oc3cc(O)c(O)cc3c(=O)c12` [Compound 5, 3,6,7-trihydroxy-1-methoxyxanthone], for which the IC50 in [2] (setting [22]), in data set [3] (setting [23]), in [4] (setting [24]), in [5] (setting [25]) and in data set [6] (setting [26]) was over 40 µM each time.

Consider `COc1cc2oc3cc(O)cc(O)c3c(=O)c2cc1O` [Compound 7, 1,3,7-trihydroxy-6-methoxyxanthone], for which the IC50 in [2] (setting [22]) was over 40 µM; in data set [3] (setting [23]), 37.1 ± 0.97 µM; in data set [3] (setting [29]) it was 10 to 40 µM; in data set [4] (setting [24]), over 40 µM; in data set [5] (setting [25]), 28.2 ± 0.89 µM; in [5] (setting [28]) it was 10 to 40 µM. For the same compound, the IC50 in [6] (setting [26]) is over 40 µM; in [8], 12.1 ± 0.14 µM.

As for `C=C(C)[C@@H]1Cc2c(cc(O)c3c(=O)c4ccc(O)c(O)c4oc23)OC1C=C(C)C` (some centres unmarked) [Compound 9, Hypxanthone B], the IC50 in data set [1] (Homo sapiens, read-out: cytotoxicity (class)) is 10 to 40 µM; in data set [2] (setting [22]), 25.8 ± 2.04 µM; in data set [2] (setting [30]), 10 to 40 µM; in data set [3] (setting [23]), over 40 µM; in data set [4] (setting [24]) it was 30.8 ± 0.38 µM; in [4] (setting [31]), 10 to 40 µM. Besides, the IC50 in [5] (setting [25]) was 8.26 ± 0.57 µM; in [6] (setting [26]) it was 11.93 ± 0.1 µM; in data set [6] (setting [27]), 10 to 40 µM; in data set [8] it was over 40 µM.

Turning to `C=C(C)C(CC=C(C)C)Cc1c(O)cc(O)c2c(=O)c3ccc(O)c(O)c3oc12` (centres unmarked) [Compound 10, calycinoxanthon D], the IC50 in data set [2] (setting [22]) was 16.6 ± 0.24 µM; in [2] (setting [30]) it was 10 to 40 µM; in [3] (setting [23]), 31.1 ± 2.67 µM; in data set [3] (setting [29]), 10 to 40 µM; in data set [4] (setting [24]), 24.9 ± 0.46 µM; in data set [4] (setting [31]) it was 10 to 40 µM. The IC50 in data set [5] (setting [25]) was 6.27 ± 0.16 µM; in [6] (setting [26]), 21.33 ± 0.16 µM; in [6] (setting [27]), 10 to 40 µM; in data set [8] it was 12.2 ± 0.25 µM.

`CC(=O)O[C@H]1C(=O)[C@@]2(C)[C@H]([C@H](OC(=O)c3ccccc3)[C@]3(O)C[C@H](OC(=O)[C@H](O)[C@@H](NC(=O)c4ccccc4)c4ccccc4)C(C)=C1C3(C)C)[C@]1(OC(C)=O)CO[C@@H]1C[C@@H]2O` [Taxol, reference compound]: the IC50 in data set [2] (setting [22]) was 0.11 ± 0.011 µM; in data set [3] (setting [23]) it was under 0.01 µM; in data set [4] (setting [24]), under 0.01 µM; in data set [5] (setting [25]), 0.18 ± 0.03 µM; in data set [6] (setting [26]), under 0.01 µM; in data set [8], under 0.01 µM.

As for isojacareubin [Compound 6], the IC50 in data set [1] (setting [15]) was 1.41 to 11.8 µM; in data set [2] (setting [16]), 9.09 ± 0.38 µM; in data set [3] (setting [17]), 9.2 ± 0.21 µM; in data set [9], under 10 µM; in [4] (setting [18]) it was 11.8 ± 0.56 µM; in data set [5] (setting [19]) it was 1.41 ± 0.03 µM. Moreover, the IC50 in data set [10] is under 10 µM; in data set [6] (setting [20]) it was 2.4 ± 0.02 µM; in [12], 10 to 40 µM; in [13], under 10 µM; in data set [7], under 10 µM; in [7] (setting [21]), 2.03 ± 0.04 µM. For the same compound, the IC50 in data set [14] is under 10 µM. For the same compound, in data set [11], the “inhibition of PKC” value is “potent inhibitor”.
